Measured values as given in patent publication US20040009168A1, “Multidose antibody formulation” (priority 2002, published 2004).

How the values were obtained:
[1] = test system: Candida albicans, and Aspergillus niger; assay: Preservative screening test (modified USP/EP preservative efficacy test), fungi; format: cell-based; settings: for Fungi × 10^5 (cfu/mL): 1 week at 25 ° C., total fungal count 2.84 × 10^5 cfu/mL
Description: (§1) The efficacy of the preservative against various microorganisms was measured using a modified USP/EP preservative efficacy test. These tests were conducted at Microconsult Inc. (Dallas, Tex.). In the procedure, formulations were tested against the following microorganisms: Escherichia coli, Staphylococcus aureus, Pseudomonas aeruginosa, Candida albicans, and Aspergillus niger. The three bacterial strains were inoculated together at a total concentration of ˜10^5 cfu/mL, and the two fungi were inoculated together at a total concentration of ˜10^5 cfu/mL. Samples were incubated for 7 days at room temperature (25° C.), and the total bacterial and fungal counts were measured using a colony counter. The log reduction (LR) values for the bacterial and fungal counts were calculated as log (initial count/final count).
(§2) In the unmodified USP/EP preservative efficacy tests, each microorganism is tested separately at a concentration of ˜10^5 cfu/mL. […] The preservative efficacy test was modified in this study to reduce the total sample requirement and cost per analysis. Although the bacterial and fungal strains were not tested individually at specified concentrations, by comparing the overall bacterial and fungal log reduction values with the regulatory requirements, an assessment is made of the efficacy of the preservative against these microorganisms.
(§3) The formulations were prepared by adding the preservatives at the desired concentrations as per the I-optimal design table (Table II), generated using the software Strategy (Experiment Strategies Foundation & Process Builder, Inc.). All samples were incubated at 37° C. for 9 weeks. Because protein aggregation was known to be the primary degradation pathway, protein stability was examined by SEC and right-angle light scattering to monitor the formation of soluble and insoluble aggregates, respectively, and by UV spectroscopy to monitor changes in the protein concentration. The biological activity of the samples was assessed after 1 month at 37° C. Furthermore, to assess the antimicrobial efficacy of the formulations, samples were examined by the preservative screening test at the initial time point. Samples were incubated at room temperature, and the aerobic plate counts were measured based on the minimum requirements of the USP and BP/EP preservative efficacy tests at 24 hours, 7 days, and 14 days.

[2] = test system: Escherichia coli, Staphylococcus aureus, Pseudomonas aeruginosa; assay: Preservative screening test (modified USP/EP preservative efficacy test), bacteria; format: cell-based; settings: for maximal log reduction against bacteria (model simulation): individual preservative; for b-coefficient, Bacterial LR: ± 95% confidence limits; for Bacterial × 10^4 (cfu/mL): 1 week at 25 ° C., total bacterial count 8.78 × 10^4 cfu/mL; for antimicrobial efficacy against bacteria (regression analysis, in words): I-optimal design, 14 days at room temperature
Description: as §1, §2, §3

[3] = test system: antigen expressed on human T cells; assay: Potency testing by FACS binding assay (flow cytometry); settings: 1 week at 45 ° C.
Description: (§4) Because of the results seen in the preliminary evaluation, additional analyses were done using lower concentrations of the preservatives.
The biological activity (potency) of the protein was measured by flow cytometry, based on the binding of the antibody antigen expressed on human T cells.

[4] = test system: formulated humanized monoclonal antibody; assay: Size-exclusion chromatography (SEC), monomer content; format: physicochemical; settings: for Effect of the preservative on antibody stability (in words): preliminary screening, 2 days at 50° C.; for Monomer (%): 1 week at 45 ° C.; for Percent monomer (by SEC): after 2 days at 50° C.
Description: (§5) The compatibility of six parenteral preservatives (benzyl alcohol, chlorobutanol, methyl paraben, propyl paraben, phenol, and m-cresol) with the formulated humanized monoclonal antibody was tested. The preservatives were added to the formulated antibody based on their commonly used concentration ranges in marketed multidose products (3). Protein aggregation was suspected to be the primary degradation pathway. Preliminary evaluation of the preservatives was done initially by DSC and after 2 days of incubation at 50° C. by visual inspection for appearance and by SEC for soluble aggregates.
as §4
The monomer content, soluble aggregates, and clips due to hydrolysis were monitored by size-exclusion chromatography. The analytical system employed consisted of an HPLC pump (Perkin Elmer, Series 410) and an autosampler (Perkin Elmer, ISS 2000) connected to a diode array detector (Perkin Elmer, 235C). Two size-exclusion chromatography columns (Tosohaas TSK-Gel, G3000SWXL,), connected in tandem, were used for sample separation. The composition of the mobile phase was 200 mM KPO4, 150 mM NaCl, pH 6.9. Samples were diluted to 1 mg/mL and a sample volume of 40 μL was injected for analysis. The flow rate was 1.0 mL/min, and detection was at 220 and 280 nm.

[5] = test system: formulated humanized monoclonal antibody; assay: Differential scanning calorimetry (DSC), denaturation temperature; format: physicochemical; settings: for Effect on the denaturation temperature (in words): addition of the preservative, relative to control; for Tm (by DSC): initial time point, t0
Description: as §5
A decrease in the denaturation temperature reflects a destabilizing effect of the preservative on formulation stability. The denaturation temperature (Tm) of the sample was measured using the Pyris 1 differential scanning calorimeter (Perkin Elmer). A sample volume of 50 μL was taken from a 10 mg/mL protein sample and sealed in a stainless steel pan. The sample was held at 32° C. for 2 minutes, and heated to 100° C. at the rate of 10° C./min.

[6] = test system: formulated humanized monoclonal antibody; assay: Visual analysis of the antibody formulation with preservative; format: physicochemical; settings: for Visual analysis: after 2 days at 50° C.
Description: as §5

[7] = main effect of the preservative (bi)
[8] = quadratic term of one preservative (bii)
[9] = single preservative, 0.2% chlorobutanol

| SMILES | b-coefficient, Fungal LR [1, 7] | Fungi × 10^5 (cfu/mL) ([1]; preservative 0.05%) | Fungi × 10^5 (cfu/mL) ([1]; preservative 0.1%) | b-coefficient, Fungal LR [1, 8] | maximal log reduction against bacteria (model simulation) [2] | b-coefficient, Bacterial LR [2, 7] | b-coefficient, Bacterial LR [2, 8] | Potency (%) ([3]; preservative 0.01%) | Fungi × 10^5 (cfu/mL) ([1]; preservative 0.01%) | antimicrobial efficacy against bacteria (regression analysis, in words) [2] | Bacterial × 10^4 (cfu/mL) ([2]; preservative 0.01%) | Effect of the preservative on antibody stability (in words) [4] | Monomer (%) ([4]; preservative 0.01%) | Percent monomer (by SEC) ([4]; preservative 0.1%) [%] | Effect on the denaturation temperature (in words) [5] | Visual analysis ([6]; preservative 0.1%) | further results |
| --- | --- | --- | --- | --- | --- | --- | --- | --- | --- | --- | --- | --- | --- | --- | --- | --- | --- |
| CC(C)(O)C(Cl)(Cl)Cl [Chlorobutanol, chlorobutanol] | 0.07 | 18 × 10^5 cfu/mL | 14 × 10^5 cfu/mL | −0.64 | 2.0 | 0.27 ± 0.05 | 0.17 ± 0.10 | – | – | – | – | – | – | – | – | – | Fungi × 10^5 (cfu/mL) ([1]; preservative 0.2%): 0 × 10^5 cfu/mL; log reduction value predicted by simulation, fungi [1, 9]: 1.2; Bacterial × 10^4 (cfu/mL) ([2]; preservative 0.2%): 46 × 10^4 cfu/mL; log reduction value predicted by simulation, bacteria [2, 9]: 2.0 |
| COC(=O)c1ccc(O)cc1 [Methyl paraben, methyl paraben] | 0.46 | 2 × 10^5 cfu/mL | 0 × 10^5 cfu/mL | 0.00 | 2.3 | 0.60 ± 0.05 | 0.12 ± 0.10 | 73 | 26 × 10^5 cfu/mL | statistically significant antimicrobial efficacy | TNTC | stable | 98.31 | 91.3 | did not affect the denaturation temperature | Clear | Potency (%) ([3]; preservative 0.05%): 75%; Potency (%) ([3]; preservative 0.1%): 75%; Bacterial × 10^4 (cfu/mL) ([2]; preservative 0.05%): TNTC; Bacterial × 10^4 (cfu/mL) ([2]; preservative 0.1%): 56 × 10^4 cfu/mL; Monomer (%) ([4]; preservative 0.05%): 97.43%; Monomer (%) ([4]; preservative 0.1%): 97.18%; Percent monomer (by SEC) ([4]; preservative 0.1%, listed as methyl paraben): ~91%; Tm (by DSC) ([5]; preservative 0.05%): 80.4 °C; Visual analysis ([6]; preservative 0.05%): Clear |
| Oc1ccccc1 [Phenol, phenol] | – | – | – | – | – | – | – | – | – | – | – | not compatible with the protein | – | 62.7 | – | Slightly cloudy | Effect of the preservative on antibody stability (in words) ([4]; listed as phenol): caused the formation of both soluble and insoluble aggregates; Percent monomer (by SEC) ([4]; preservative 0.5%): 20.0%; Visual analysis ([6]; preservative 0.5%): Cloudy |
| CCCOC(=O)c1ccc(O)cc1 [Propyl paraben, propyl paraben] | 0.29 | – | – | 0.40 | – | −0.14 ± 0.05 | 0.26 ± 0.10 | 68 | 0 × 10^5 cfu/mL | not effective | TNTC | stable | 97.34 | – | did not affect the denaturation temperature | – | Potency (%) ([3]; preservative 0.0075%): 74%; Fungi × 10^5 (cfu/mL) ([1]; preservative 0.0075%): 2 × 10^5 cfu/mL; Bacterial × 10^4 (cfu/mL) ([2]; preservative 0.0075%): TNTC; Monomer (%) ([4]; preservative 0.0075%): 97.89%; Percent monomer (by SEC) ([4]; preservative 0.02%): 85.3%; Percent monomer (by SEC) ([4]; preservative 0.02%, listed as propyl paraben): 85%; Tm (by DSC) ([5]; preservative 0.02%): 80.6 °C; Visual analysis ([6]; preservative 0.02%): Clear |
| Cc1cccc(O)c1 [m-cresol] | – | – | – | – | – | – | – | – | – | – | – | not compatible with the protein | – | – | – | Precipitated | Visual appearance of the formulations (in words) ([6]; all tested concentrations, 2 days at 50° C.): precipitated the protein; Visual analysis ([6]; preservative 0.3%): Precipitated |
